{"source": "the kinase profiling compilation of Christmann-Franck et al. (2016)", "assay_in_all_cases": "KINOMEscan competition binding", "settings_in_all_cases": "compound 1.0 µM", "key": {"[1]": {"target": "AAK1 (human) (UniProt Q2M2I8)"}, "[2]": {"target": "ADCK4 (human) (UniProt Q96D53)"}, "[3]": {"target": "ALK (human) (UniProt Q9UM73)"}, "[4]": {"target": "BMPR1B (human) (UniProt O00238)"}, "[5]": {"target": "CAMK1D (human) (UniProt Q8IU85)"}, "[6]": {"target": "CAMK2D (human) (UniProt Q13557)", "sequence (Q13557 whole entry, looked up)": "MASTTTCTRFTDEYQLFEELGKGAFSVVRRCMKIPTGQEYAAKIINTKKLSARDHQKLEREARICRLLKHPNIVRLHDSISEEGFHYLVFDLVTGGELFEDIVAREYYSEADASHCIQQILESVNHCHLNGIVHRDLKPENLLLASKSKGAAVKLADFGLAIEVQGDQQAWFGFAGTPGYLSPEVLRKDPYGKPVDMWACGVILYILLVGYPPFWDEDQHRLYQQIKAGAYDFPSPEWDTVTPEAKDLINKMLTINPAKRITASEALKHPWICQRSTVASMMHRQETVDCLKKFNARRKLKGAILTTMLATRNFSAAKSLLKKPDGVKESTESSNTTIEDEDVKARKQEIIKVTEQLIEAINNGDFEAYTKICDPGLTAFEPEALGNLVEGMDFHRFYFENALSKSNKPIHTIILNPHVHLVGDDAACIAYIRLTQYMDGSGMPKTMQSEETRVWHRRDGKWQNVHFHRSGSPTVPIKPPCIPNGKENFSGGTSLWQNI"}, "[7]": {"target": "CDC42BPA (human) (UniProt Q5VT25)"}, "[8]": {"target": "CDK19 (human) (UniProt Q9BWU1)"}, "[9]": {"target": "CaMK1 (human) (UniProt Q14012)"}, "[10]": {"target": "DDR1 (human) (UniProt Q08345)"}, "[11]": {"tested_on": "EGFR (human), P00533 [G719S]"}, "[12]": {"target": "EPHA6 (human) (UniProt Q9UF33)"}, "[13]": {"target": "EPHB6 (human) (UniProt O15197)"}, "[14]": {"target": "ERBB3 (human) (UniProt P21860)"}, "[15]": {"target": "FRK (human) (UniProt P42685)", "sequence (P42685 whole entry, looked up)": "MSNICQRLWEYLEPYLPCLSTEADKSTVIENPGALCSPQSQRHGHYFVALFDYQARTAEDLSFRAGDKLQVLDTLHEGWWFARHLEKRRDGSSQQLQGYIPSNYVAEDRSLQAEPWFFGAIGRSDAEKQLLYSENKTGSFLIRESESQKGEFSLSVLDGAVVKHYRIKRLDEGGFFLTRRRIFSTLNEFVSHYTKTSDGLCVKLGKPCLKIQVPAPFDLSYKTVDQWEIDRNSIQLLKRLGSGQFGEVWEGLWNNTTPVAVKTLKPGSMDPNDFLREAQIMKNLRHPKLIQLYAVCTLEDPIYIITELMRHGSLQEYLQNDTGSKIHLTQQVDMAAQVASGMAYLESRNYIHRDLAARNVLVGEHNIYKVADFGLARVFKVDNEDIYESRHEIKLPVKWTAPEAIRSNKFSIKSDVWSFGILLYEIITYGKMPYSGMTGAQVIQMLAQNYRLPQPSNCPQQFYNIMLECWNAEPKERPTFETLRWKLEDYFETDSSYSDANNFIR"}, "[16]": {"target": "GRK1 (human) (UniProt Q15835)"}, "[17]": {"target": "HCK (human) (UniProt P08631)"}, "[18]": {"target": "HIPK3 (human) (UniProt Q9H422)"}, "[19]": {"tested_on": "KIT (human), P10721 [A829P]", "sequence (P10721 whole entry A829P, looked up)": "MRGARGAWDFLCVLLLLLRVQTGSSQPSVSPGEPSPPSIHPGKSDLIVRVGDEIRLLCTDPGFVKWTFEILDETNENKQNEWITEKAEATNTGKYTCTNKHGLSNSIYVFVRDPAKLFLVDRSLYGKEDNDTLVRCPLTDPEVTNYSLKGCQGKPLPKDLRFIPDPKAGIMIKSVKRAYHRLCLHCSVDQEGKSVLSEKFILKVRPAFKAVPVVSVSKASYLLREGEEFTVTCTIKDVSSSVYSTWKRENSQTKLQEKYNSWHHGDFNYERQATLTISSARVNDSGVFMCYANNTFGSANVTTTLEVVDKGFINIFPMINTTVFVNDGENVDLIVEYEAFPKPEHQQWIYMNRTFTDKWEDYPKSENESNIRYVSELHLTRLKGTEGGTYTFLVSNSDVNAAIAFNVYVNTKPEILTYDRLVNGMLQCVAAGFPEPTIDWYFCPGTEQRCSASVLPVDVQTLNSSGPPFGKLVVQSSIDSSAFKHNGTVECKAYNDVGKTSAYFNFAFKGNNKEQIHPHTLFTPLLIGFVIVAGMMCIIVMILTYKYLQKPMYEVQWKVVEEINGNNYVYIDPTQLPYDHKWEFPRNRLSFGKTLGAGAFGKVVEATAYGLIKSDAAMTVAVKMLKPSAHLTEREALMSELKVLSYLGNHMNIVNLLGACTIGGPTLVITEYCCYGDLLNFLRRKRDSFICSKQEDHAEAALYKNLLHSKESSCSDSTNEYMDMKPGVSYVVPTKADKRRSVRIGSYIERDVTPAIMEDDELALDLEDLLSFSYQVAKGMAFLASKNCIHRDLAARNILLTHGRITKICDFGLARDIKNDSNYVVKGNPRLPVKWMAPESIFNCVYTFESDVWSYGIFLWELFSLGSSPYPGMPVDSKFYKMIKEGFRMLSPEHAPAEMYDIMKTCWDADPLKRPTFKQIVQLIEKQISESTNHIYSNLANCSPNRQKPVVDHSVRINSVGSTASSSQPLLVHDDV"}, "[20]": {"tested_on": "KIT (human), P10721 [D816V]", "sequence (P10721 whole entry D816V, looked up)": "as the sequence (P10721 whole entry A829P, looked up) above, with D816V, P829A counted along it"}, "[21]": {"target": "LIMK1 (human) (UniProt P53667)"}, "[22]": {"target": "MAPK12 (human) (UniProt P53778)"}, "[23]": {"target": "MAPK14 (human) (UniProt Q16539)"}, "[24]": {"target": "MARK3 (human) (UniProt P27448)"}, "[25]": {"target": "MELK (human) (UniProt Q14680)"}, "[26]": {"target": "MST1R (human) (UniProt Q04912)"}, "[27]": {"target": "MST4 (human) (UniProt Q9P289)", "sequence (Q9P289 whole entry, looked up)": "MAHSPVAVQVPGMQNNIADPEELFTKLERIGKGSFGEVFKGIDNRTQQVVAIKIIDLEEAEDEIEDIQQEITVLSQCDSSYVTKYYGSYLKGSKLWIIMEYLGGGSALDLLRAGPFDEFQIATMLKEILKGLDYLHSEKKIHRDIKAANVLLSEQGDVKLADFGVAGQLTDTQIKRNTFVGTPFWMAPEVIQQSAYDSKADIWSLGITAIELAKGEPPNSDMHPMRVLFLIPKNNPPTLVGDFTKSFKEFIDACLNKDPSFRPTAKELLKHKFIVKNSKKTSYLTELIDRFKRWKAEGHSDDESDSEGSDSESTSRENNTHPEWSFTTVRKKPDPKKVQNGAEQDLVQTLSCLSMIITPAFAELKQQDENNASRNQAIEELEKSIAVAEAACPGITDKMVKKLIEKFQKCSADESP"}, "[28]": {"target": "MTOR (human) (UniProt P42345)"}, "[29]": {"target": "MYO3A (human) (UniProt Q8NEV4)"}, "[30]": {"target": "NEK7 (human) (UniProt Q8TDX7)"}, "[31]": {"target": "NLK (human) (UniProt Q9UBE8)"}, "[32]": {"target": "NTRK2 (human) (UniProt Q16620)"}, "[33]": {"target": "PAK3 (human) (UniProt O75914)", "sequence (O75914 whole entry, looked up)": "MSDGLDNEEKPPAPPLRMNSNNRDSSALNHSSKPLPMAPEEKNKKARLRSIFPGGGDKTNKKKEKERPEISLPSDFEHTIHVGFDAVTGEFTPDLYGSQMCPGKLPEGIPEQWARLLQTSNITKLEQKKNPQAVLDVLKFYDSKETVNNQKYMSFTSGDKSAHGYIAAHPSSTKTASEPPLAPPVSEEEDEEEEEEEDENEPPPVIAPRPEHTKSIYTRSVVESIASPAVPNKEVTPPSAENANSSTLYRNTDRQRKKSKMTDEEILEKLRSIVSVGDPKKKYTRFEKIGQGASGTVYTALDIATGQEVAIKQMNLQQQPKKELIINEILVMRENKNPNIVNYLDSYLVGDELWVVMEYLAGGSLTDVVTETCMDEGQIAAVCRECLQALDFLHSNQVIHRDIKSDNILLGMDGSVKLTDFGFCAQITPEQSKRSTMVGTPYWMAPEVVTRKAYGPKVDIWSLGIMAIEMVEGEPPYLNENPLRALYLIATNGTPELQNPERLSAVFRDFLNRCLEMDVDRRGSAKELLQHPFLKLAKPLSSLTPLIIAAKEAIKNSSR"}, "[34]": {"target": "PIK3C2B (human) (UniProt O00750)"}, "[35]": {"target": "PKMYT1 (human) (UniProt Q99640)"}, "[36]": {"target": "RIOK2 (human) (UniProt Q9BVS4)"}, "[37]": {"target": "RIPK2 (human) (UniProt O43353)"}, "[38]": {"target": "RIPK4 (human) (UniProt P57078)"}, "[39]": {"target": "STK16 (human) (UniProt O75716)", "sequence (O75716 whole entry, looked up)": "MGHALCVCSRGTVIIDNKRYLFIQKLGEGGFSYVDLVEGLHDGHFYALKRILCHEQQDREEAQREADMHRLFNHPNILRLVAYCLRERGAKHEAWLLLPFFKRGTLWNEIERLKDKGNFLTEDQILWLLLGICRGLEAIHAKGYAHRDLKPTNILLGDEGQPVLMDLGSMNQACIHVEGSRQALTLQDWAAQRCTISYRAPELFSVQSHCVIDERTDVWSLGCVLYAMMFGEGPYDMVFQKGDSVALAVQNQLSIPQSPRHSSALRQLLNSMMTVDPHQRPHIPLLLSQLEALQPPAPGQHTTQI"}, "[40]": {"target": "STK35 (human) (UniProt Q8TDR2)", "sequence (Q8TDR2 whole entry, looked up)": "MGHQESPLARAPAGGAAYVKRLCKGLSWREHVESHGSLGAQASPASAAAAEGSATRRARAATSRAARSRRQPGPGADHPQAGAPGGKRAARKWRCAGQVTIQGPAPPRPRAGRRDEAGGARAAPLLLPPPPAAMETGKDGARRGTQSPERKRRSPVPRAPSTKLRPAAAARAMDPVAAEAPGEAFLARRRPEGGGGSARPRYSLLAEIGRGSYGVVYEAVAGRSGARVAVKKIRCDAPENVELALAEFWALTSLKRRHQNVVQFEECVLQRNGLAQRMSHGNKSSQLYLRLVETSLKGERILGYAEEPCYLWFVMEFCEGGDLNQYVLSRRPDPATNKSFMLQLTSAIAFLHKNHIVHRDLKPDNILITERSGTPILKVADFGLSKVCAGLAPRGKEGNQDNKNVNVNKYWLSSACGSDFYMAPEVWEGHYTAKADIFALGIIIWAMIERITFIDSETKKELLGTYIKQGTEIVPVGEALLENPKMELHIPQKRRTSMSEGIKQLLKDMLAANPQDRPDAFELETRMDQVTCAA"}, "[41]": {"target": "TGFBR2 (human) (UniProt P37173)"}, "[42]": {"target": "TTK (human) (UniProt P33981)"}, "[43]": {"target": "TYK2 JH1 catalytic (human) (UniProt P29597)", "sequence (P29597 whole entry, looked up)": "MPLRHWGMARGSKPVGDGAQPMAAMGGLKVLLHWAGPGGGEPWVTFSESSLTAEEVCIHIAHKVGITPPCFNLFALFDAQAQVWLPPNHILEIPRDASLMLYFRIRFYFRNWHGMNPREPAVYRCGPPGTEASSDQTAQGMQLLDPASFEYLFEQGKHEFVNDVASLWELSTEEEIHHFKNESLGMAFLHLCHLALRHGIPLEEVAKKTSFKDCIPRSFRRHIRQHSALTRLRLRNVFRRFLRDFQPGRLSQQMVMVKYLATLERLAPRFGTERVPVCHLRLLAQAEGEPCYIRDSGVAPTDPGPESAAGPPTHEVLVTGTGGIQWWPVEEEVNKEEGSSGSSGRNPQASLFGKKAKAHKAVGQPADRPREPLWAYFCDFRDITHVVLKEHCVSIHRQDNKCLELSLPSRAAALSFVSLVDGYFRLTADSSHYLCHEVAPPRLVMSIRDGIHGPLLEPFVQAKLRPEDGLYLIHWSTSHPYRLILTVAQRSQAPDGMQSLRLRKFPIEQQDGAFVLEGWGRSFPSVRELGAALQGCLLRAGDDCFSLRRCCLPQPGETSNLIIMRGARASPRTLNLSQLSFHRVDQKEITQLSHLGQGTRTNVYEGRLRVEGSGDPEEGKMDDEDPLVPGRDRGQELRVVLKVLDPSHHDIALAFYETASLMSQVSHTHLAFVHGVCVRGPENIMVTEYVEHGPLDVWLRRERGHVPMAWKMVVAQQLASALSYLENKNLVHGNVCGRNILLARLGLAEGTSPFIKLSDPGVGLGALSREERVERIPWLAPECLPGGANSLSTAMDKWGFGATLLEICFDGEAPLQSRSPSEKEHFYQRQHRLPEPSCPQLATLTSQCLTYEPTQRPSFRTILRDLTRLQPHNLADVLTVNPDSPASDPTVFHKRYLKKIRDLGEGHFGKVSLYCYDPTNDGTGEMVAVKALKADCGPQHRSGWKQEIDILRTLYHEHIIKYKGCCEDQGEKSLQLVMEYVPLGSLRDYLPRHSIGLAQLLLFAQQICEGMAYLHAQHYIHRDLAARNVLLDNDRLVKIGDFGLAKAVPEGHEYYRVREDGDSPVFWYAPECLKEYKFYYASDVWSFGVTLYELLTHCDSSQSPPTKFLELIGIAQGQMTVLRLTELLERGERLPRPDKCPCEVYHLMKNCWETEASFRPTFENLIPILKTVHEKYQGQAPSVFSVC"}}}
{"smiles": "COCCNCCCn1c(C(=O)CF)c(-c2ccc(C)cc2)c2c(N)ncnc21", "values": [{"measurement": "kinase still bound, per cent of control", "setting": "[1]", "value": 95, "unit": "%"}, {"measurement": "kinase still bound, per cent of control", "setting": "[2]", "value": 93, "unit": "%"}, {"measurement": "kinase still bound, per cent of control", "setting": "[3]", "value": 71, "unit": "%"}, {"measurement": "kinase still bound, per cent of control", "setting": "[4]", "value": 85, "unit": "%"}, {"measurement": "kinase still bound, per cent of control", "setting": "[5]", "value": 100, "unit": "%"}, {"measurement": "kinase still bound, per cent of control", "setting": "[6]", "value": 82, "unit": "%"}, {"measurement": "kinase still bound, per cent of control", "setting": "[7]", "value": 92, "unit": "%"}, {"measurement": "kinase still bound, per cent of control", "setting": "[8]", "value": 98, "unit": "%"}, {"measurement": "kinase still bound, per cent of control", "setting": "[9]", "value": 100, "unit": "%"}, {"measurement": "kinase still bound, per cent of control", "setting": "[10]", "value": 100, "unit": "%"}, {"measurement": "kinase still bound, per cent of control", "setting": "[11]", "value": 90, "unit": "%"}, {"measurement": "kinase still bound, per cent of control", "setting": "[12]", "value": 82, "unit": "%"}, {"measurement": "kinase still bound, per cent of control", "setting": "[13]", "value": 100, "unit": "%"}, {"measurement": "kinase still bound, per cent of control", "setting": "[14]", "value": 96, "unit": "%"}, {"measurement": "kinase still bound, per cent of control", "setting": "[15]", "value": 81, "unit": "%"}, {"measurement": "kinase still bound, per cent of control", "setting": "[16]", "value": 100, "unit": "%"}, {"measurement": "kinase still bound, per cent of control", "setting": "[17]", "value": 100, "unit": "%"}, {"measurement": "kinase still bound, per cent of control", "setting": "[18]", "value": 100, "unit": "%"}, {"measurement": "kinase still bound, per cent of control", "setting": "[19]", "value": 85, "unit": "%"}, {"measurement": "kinase still bound, per cent of control", "setting": "[20]", "value": 96, "unit": "%"}, {"measurement": "kinase still bound, per cent of control", "setting": "[21]", "value": 100, "unit": "%"}, {"measurement": "kinase still bound, per cent of control", "setting": "[22]", "value": 100, "unit": "%"}, {"measurement": "kinase still bound, per cent of control", "setting": "[23]", "value": 96, "unit": "%"}, {"measurement": "kinase still bound, per cent of control", "setting": "[24]", "value": 100, "unit": "%"}, {"measurement": "kinase still bound, per cent of control", "setting": "[25]", "value": 95, "unit": "%"}, {"measurement": "kinase still bound, per cent of control", "setting": "[26]", "value": 100, "unit": "%"}, {"measurement": "kinase still bound, per cent of control", "setting": "[27]", "value": 69, "unit": "%"}, {"measurement": "kinase still bound, per cent of control", "setting": "[28]", "value": 90, "unit": "%"}, {"measurement": "kinase still bound, per cent of control", "setting": "[29]", "value": 100, "unit": "%"}, {"measurement": "kinase still bound, per cent of control", "setting": "[30]", "value": 100, "unit": "%"}, {"measurement": "kinase still bound, per cent of control", "setting": "[31]", "value": 96, "unit": "%"}, {"measurement": "kinase still bound, per cent of control", "setting": "[32]", "value": 74, "unit": "%"}, {"measurement": "kinase still bound, per cent of control", "setting": "[33]", "value": 100, "unit": "%"}, {"measurement": "kinase still bound, per cent of control", "setting": "[34]", "value": 100, "unit": "%"}, {"measurement": "kinase still bound, per cent of control", "setting": "[35]", "value": 86, "unit": "%"}, {"measurement": "kinase still bound, per cent of control", "setting": "[36]", "value": 100, "unit": "%"}, {"measurement": "kinase still bound, per cent of control", "setting": "[37]", "value": 39, "unit": "%"}, {"measurement": "kinase still bound, per cent of control", "setting": "[38]", "value": 100, "unit": "%"}, {"measurement": "kinase still bound, per cent of control", "setting": "[39]", "value": 100, "unit": "%"}, {"measurement": "kinase still bound, per cent of control", "setting": "[40]", "value": 99, "unit": "%"}, {"measurement": "kinase still bound, per cent of control", "setting": "[41]", "value": 100, "unit": "%"}, {"measurement": "kinase still bound, per cent of control", "setting": "[42]", "value": 95, "unit": "%"}, {"measurement": "kinase still bound, per cent of control", "setting": "[43]", "value": 100, "unit": "%"}]}
